Assay results taken from patent publication US8551452B2, “Uridine dietary supplementation compliance methods and use thereof” (Massachusetts Institute of Technology, priority 2007, dated 2013).

What was measured:
[1] = Localized 13C MRS measurement of in vivo 13C cytidine in brain (9.4 T); details: in vivo 13C brain cytidine content, external reference method
Method: All in vivo MRS studies are performed in a horizontal 9.4-T/31-cm magnet (Magnex Scientific, UK) with an 11-cm-diameter gradient coil capable of switching to 300 mT/m in 500 μs, interfaced with an INOVA console (Varian Inc., Calif., USA). A quadrature ^1H radiofrequency (RF) 14-mm-diameter coil and a linear polarized, three-turn 11-mm-diameter ^13C RF coil are used as the transceiver. A sphere containing 99% ^13C-enriched glucose (Glu) is located at the center of the ^13C coil as an external reference, and the coil is placed on the subject's head. Fast Automatic Shimming Technique by Mapping Along Projections (FASTMAP) shimming with echo-planar imaging (EPI) readout is applied to adjust B0 field homogeneity in a initially nominal ˜440 μL volume of interest (VOI). The Single-shot Inversion Recovery based Non-Echo (SIRENE) sequence is applied for 3D localization with optimized outer volume suppression to ensure elimination of signals from noncerebral tissue, and bilevel WALTZ-16 RF pulses are applied at the water frequency for generation of a nuclear Overhauser effect (NOE) and for decoupling during acquisition.
Twelve 64-scan localized ^13C MR spectra (repetition time (TR)=1 s) acquired and are summed, apodized by 20-Hz exponential line-broadening, zero-filled, and Fourier transformed. […] In vivo ^13C brain cytidine content ([^13C-Cyt]invivo) is calculated.

[2] = Localized in vivo 1H MRS of parietal white matter and occipital gray matter (1.5T) for cytidine levels; details: brain cytidine-containing metabolites, brain water as internal reference
Method: All MRI scans and localized in vivo ^1H MRS procedures are performed on a system equipped with shielded gradients (GE 1.5T Signa; General Electric Medical Systems; Milwaukee, Wis.) from 9 PM to midnight. Spectroscopy is performed following a routine brain MRI analysis, and the T2-weighted images are used for localization of an area of interest. […]
The major metabolites detectable in ^1H MRS are CDP choline, cytidine, cytidine 5′-monophosphate (CMP), cytidine 5′-diphosphate (CDP), cytidine 5′-triphosphate (CTP), deoxycytidine 5′-monophosphate (dCMP), deoxycytidine 5′-diphosphate (dCDP), deoxycytidine 5′-triphosphate (dCTP). […] The areas under the peaks is measured by Lorenzian line-shape fitting. The absolute concentrations of CDP choline, cytidine, cytidine 5′-monophosphate (CMP), cytidine 5′-diphosphate (CDP), cytidine 5′-triphosphate (CTP), deoxycytidine 5′-monophosphate (dCMP), deoxycytidine 5′-diphosphate (dCDP), deoxycytidine 5′-triphosphate (dCTP) is calculated from the processed spectrum using the brain water as an internal reference. All concentrations are expressed as millimoles per weight of uridine taken. The reference brain water signals used is fixed in the PWM and in the OGM, as calculated.

[3] = 1H-MRS of the hippocampus (3T, PRESS), metabolite ratios to administered uridine; assay type: in vivo; details: brain cytidine-containing metabolites (CDP choline, cytidine, CMP, CDP, CTP, dCMP, dCDP, dCTP) as ratio of administered uridine, left and right hippocampus
Method: MRI and ^1H-MRS are performed on a 3T scanner. Anatomical MR images are obtained in the coronal plane using a 3D magnetization-prepared rapid gradient echo (MPRAGE) sequence. The sequence is acquired with a field of view of 16 cm, 32 slices with a 3-mm slice thickness, 256×256 matrix size 600-msec inversion time, repetition time (TR) of 8 msec, echo time (TE) of 3 msec, a bandwidth of 32 kHz, and 1 excitation. These images are used to select graphically the left and right hippocampus for solvent suppressed ^1H-MRS. Single-voxel ^1H-MRS of the hippocampus is performed using point-resolved spectroscopy (PRESS). […]
Analysis is performed on the main metabolites detected by MRS, that is, CDP choline, cytidine, cytidine 5′-monophosphate (CMP), cytidine 5′-diphosphate (CDP), cytidine 5′-triphosphate (CTP), deoxycytidine 5′-monophosphate (dCMP) , deoxycytidine 5′-diphosphate (dCDP), deoxycytidine 5′-triphosphate (dCTP), all expressed as a ratio of the administered uridine (Ur). When modeling the overall correlation between the administered uridine or uridine source and metabolite ratios, the measurements of metabolite ratios from the hippocampus on both sides of the brain of each subject analyzed by using repeated measures, with a compound symmetry covariance structure, to account for the within subject correlation.

Measured: increase in metabolite ratio as a function of administered uridine or uridine source

O=c1ccn([C@@H]2O[C@H](CO)[C@@H](O)[C@H]2O)c(=O)[nH]1 [uridine]
direct correlation: [1] | [2] | [3]
